# Source: patent US12077503B2, “Substituted cyclic amides and their use as herbicides” (FMC CORPORATION, priority 2015, dated 2024)
# What was measured:
# Format in all cases: in vivo
# [1] = test system: ragweed (common ragweed, Ambrosia elatior); experiment: Test A preemergence; conditions: Ambrosia artemisiifolia, pre-emergence, 240 h, 0 to 100 scale where 0 is no effect and 100 is complete control, read-out: Ragweed plant response rating
# Procedure, shortened: (§1)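 Visual injury, scored on a 0–100 scale relative to untreated controls, was recorded about 10 d after application. Treatments were a preemergence soil spray over planted seeds or a postemergence spray on plants at the one- to two-leaf stage, 2 to 10 cm tall, all in loam soil–sand blend in the greenhouse.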
# [2] = test system: pigweed (Amaranthus retroflexus); experiment: Test A preemergence; conditions: Amaranthus retroflexus, pre-emergence, 240 h, 0 to 100 scale where 0 is no effect and 100 is complete control, read-out: Pigweed plant response rating
# [3] = test system: barnyardgrass (Echinochloa crus-galli); experiment: Test A preemergence; conditions: Echinochloa crus-galli, pre-emergence, 240 h, 0 to 100 scale where 0 is no effect and 100 is complete control, read-out: Barnyardgrass plant response rating
# Procedure, shortened: as §1
# Kochia (Kochia scoparia) [4] = experiment: Test A preemergence; conditions: Bassia scoparia, pre-emergence, 240 h, 0 to 100 scale where 0 is no effect and 100 is complete control, read-out: Kochia plant response rating
# Procedure, shortened: as §1
# [5] = test system: ryegrass, Italian (Italian ryegrass, Lolium multiflorum); experiment: Test A preemergence; conditions: Lolium multiflorum, pre-emergence, 240 h, 0 to 100 scale where 0 is no effect and 100 is complete control, read-out: Ryegrass, Italian plant response rating
# Procedure, shortened: as §1
# [6] = test system: giant foxtail (Setaria faberii); experiment: Test A preemergence; conditions: Setaria faberi, pre-emergence, 240 h, 0 to 100 scale where 0 is no effect and 100 is complete control, read-out: Foxtail, Giant plant response rating
# Procedure, shortened: as §1
# [7] = test system: ragweed (common ragweed, Ambrosia elatior); experiment: Test A postemergence; conditions: Ambrosia artemisiifolia, post-emergence, 240 h, read-out: Ragweed plant response rating (0 to 100 scale)
# Procedure, shortened: as §1
# [8] = test system: pigweed (Amaranthus retroflexus); experiment: Test A postemergence; conditions: Amaranthus retroflexus, post-emergence, 240 h, read-out: Pigweed plant response rating (0 to 100 scale)
# Procedure, shortened: as §1
# corn (Zea mays) = experiment: Test A postemergence; conditions: Zea mays, post-emergence, 240 h, read-out: Corn plant response rating (0 to 100 scale)
# Procedure, shortened: as §1
# [9] = test system: barnyardgrass (Echinochloa crus-galli); experiment: Test A postemergence; conditions: Echinochloa crus-galli, post-emergence, 240 h, read-out: Barnyardgrass plant response rating (0 to 100 scale)
# Procedure, shortened: as §1
# [10] = test system: wheat (Triticum aestivum); experiment: Test A postemergence; conditions: Triticum aestivum, post-emergence, 240 h, Postemergence, 31 g ai/ha; 0 is no effect, 100 is complete control; read-out: Wheat plant response rating (0 to 100 scale)
# Procedure, shortened: as §1
# Kochia (Kochia scoparia) [11] = experiment: Test A postemergence; conditions: Bassia scoparia, post-emergence, 240 h, read-out: Kochia plant response rating (0 to 100 scale)
# Procedure, shortened: as §1
# [12] = test system: blackgrass (Alopecurus myosuroides); experiment: Test A postemergence; conditions: Alopecurus myosuroides, post-emergence, 240 h, read-out: Blackgrass plant response rating (0 to 100 scale)
# Procedure, shortened: as §1
# [13] = test system: ryegrass, Italian (Italian ryegrass, Lolium multiflorum); experiment: Test A postemergence; conditions: Lolium multiflorum, post-emergence, 240 h, read-out: Ryegrass, Italian plant response rating (0 to 100 scale)
# Procedure, shortened: as §1
# [14] = test system: giant foxtail (Setaria faberii); experiment: Test A postemergence; conditions: Setaria faberi, post-emergence, 240 h, read-out: Foxtail, Giant plant response rating (0 to 100 scale)
# Procedure, shortened: as §1
# [15] = test system: Galium (catchweed bedstraw, Galium aparine); experiment: Test A postemergence; conditions: Galium, post-emergence, 240 h, read-out: Galium plant response rating (0 to 100 scale)
# Procedure, shortened: as §1
# [16] = test system: barnyardgrass (Echinochloa crus-galli); experiment: Test B flooded paddy test; conditions: Echinochloa crus-galli, 250 g ai/ha, Flood; 0 to 100 scale where 0 is no effect and 100 is complete control; read-out: Barnyardgrass plant response rating
# Procedure, shortened: (§2)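 Response scored visually against untreated controls, 0 = no effect and 100 = complete control, 13–15 d after treatment in the greenhouse. Compounds added to paddy water held 3 cm above soil surface. Treatment given at 2-leaf stage.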
# [17] = test system: ducksalad (Heteranthera limosa); experiment: Test B flooded paddy test; conditions: Heteranthera limosa, 250 g ai/ha, Flood; 0 to 100 scale where 0 is no effect and 100 is complete control; read-out: Ducksalad plant response rating
# Procedure, shortened: as §2
# rice (Oryra sativa) = experiment: Test B flooded paddy test; conditions: Oryza sativa, 250 g ai/ha, Flood; 0 to 100 scale where 0 is no effect and 100 is complete control; read-out: Rice plant response rating
# Procedure, shortened: as §2
# [18] = test system: sedge, umbrella (small-flower umbrella sedge, Cyperus difformis); experiment: Test B flooded paddy test; conditions: Cyperus difformis, 250 g ai/ha, Flood; 0 to 100 scale where 0 is no effect and 100 is complete control; read-out: Sedge, Umbrella plant response rating
# Procedure, shortened: as §2
# [19] = 125 g ai/ha, preemergence, visual injury rating, approximately 10 d
# [20] = 125 g ai/ha, postemergence, visual injury vs untreated controls after approx. 10 d, 0 = no effect, 100 = complete control
# [21] = Postemergence, 31 g ai/ha, 0 is no effect, 100 is complete control
smiles,measurement,setting,value
O=C1NC[C@H](c2ccc(F)c(Oc3ccccc3)c2)[C@H]1C(=O)Nc1cccc(F)c1F [Compound 1258],pest or weed control at 31 g/ha,"[1]; 31 g ai/ha, Preemergence",0%
same,pest or weed control at 125 g/ha,[1]; [19],0%
same,pest or weed control at 31 g/ha,"[2]; 31 g ai/ha, Preemergence",0%
same,pest or weed control at 125 g/ha,[2]; [19],0%
same,pest or weed control at 31 g/ha,"[3]; 31 g ai/ha, Preemergence",0%
same,pest or weed control at 125 g/ha,[3]; [19],30%
same,pest or weed control at 31 g/ha,"Kochia (Kochia scoparia) [4]; 31 g ai/ha, Preemergence",0%
same,pest or weed control at 125 g/ha,Kochia (Kochia scoparia) [4]; [19],0%
same,pest or weed control at 31 g/ha,"[5]; 31 g ai/ha, Preemergence",0%
same,pest or weed control at 125 g/ha,[5]; [19],0%
same,pest or weed control at 31 g/ha,"[6]; 31 g ai/ha, Preemergence",40%
same,pest or weed control at 125 g/ha,[6]; [19],70%
same,pest or weed control at 125 g/ha,[7]; [20],0%
same,pest or weed control at 31 g/ha,[7]; [21],0%
same,pest or weed control at 125 g/ha,[8]; [20],30%
same,pest or weed control at 31 g/ha,[8]; [21],0%
same,plant injury at 125 g/ha,corn (Zea mays); [20],40%
same,plant injury at 31 g/ha,corn (Zea mays); [21],0%
same,pest or weed control at 125 g/ha,[9]; [20],70%
same,pest or weed control at 31 g/ha,[9]; [21],30%
same,plant injury at 31 g/ha,[10],0%
same,pest or weed control at 125 g/ha,Kochia (Kochia scoparia) [11]; [20],0%
same,pest or weed control at 31 g/ha,Kochia (Kochia scoparia) [11]; [21],0%
same,pest or weed control at 125 g/ha,[12]; [20],0%
same,pest or weed control at 31 g/ha,[12]; [21],0%
same,pest or weed control at 125 g/ha,[13]; [20],0%
same,pest or weed control at 31 g/ha,[13]; [21],0%
same,pest or weed control at 125 g/ha,[14]; [20],60%
same,pest or weed control at 31 g/ha,[14]; [21],30%
same,pest or weed control at 125 g/ha,[15]; [20],80%
same,pest or weed control at 31 g/ha,[15]; [21],70%
same,pest or weed control at 250 g/ha,[16],40%
same,pest or weed control at 250 g/ha,[17],0%
same,pest or weed control at 250 g/ha,rice (Oryra sativa),0%
same,pest or weed control at 250 g/ha,[18],0%
